# Measured values as given in patent US20250092081A1, “USE OF GLYCOSYLTRASNFERASE INHIBITORS FOR TREATING CANCER” (CALIFORNIA INSTITUTE OF TECHNOLOGY, priority 2020, published 2025).
# Columns and labels:
# [1] = test system: C. difficile ATCC43596; test: Minimum inhibitory concentration assay; settings: for C. difficile ATCC43596 MIC: 48 h, 37° C., anaerobic
# [2] = test system: C. difficile spores; test: Spore viability testing; type: cell-based; settings: for Viability of C. difficile spores: x2 MIC, 24 hours, CFU on taurocholate agar; for Inhibition of C. difficile spore germination: x5 MIC
# [3] = test system: sheep blood; test: Hemolysis of sheep blood; type: cell-based; settings: Ovis aries
# [4] = Cytotoxicity MTT assay, LoVo; type: cell-based; settings: human, LoVo cells
# Protocol: (§1) Selected molecules were tested for cytotoxicity (IC50) in cancer and healthy cells via a MTT colorimetric assay.
# (§2) Each cell was cultured in recommended medium by ATCC, and the IC50 data were obtained with each cell line.
# [5] = test system: MDA-MB-231 cells; test: Expression of tumor markers in MDA-MB-231 cells; type: cell-based; settings: 48 hours of exposure, FIG. 12
# From the text: It should be appreciated that MDA-MB-231 is a high DPAGT1 expressing, triple negative cell line. […] Erb2 (HER2), Erb3 (HER3), and Erb4 (HER4) are elevated.
# [6] = test system: patient-derived cell line (BCI-12); test: Animal model of Her2+ breast cancer (BCI-12 implanted); type: in vivo; settings: mice
# Protocol: An animal model of Her2+ breast cancer was generated by implantation of cells of a patient-derived cell line (BCI-12) into mice. Said mice were treated with compound 11, with the therapeutic monoclonal antibody transtuzumab (TzMAb), or a combination of compound 11 and transtuzumab.
# [7] = Cytotoxicity MTT assay, AsPc-1; type: cell-based; settings: human, AsPc-1 cells
# Protocol: as §1, §2
# [8] = Cytotoxicity MTT assay, SK-OV-3; type: cell-based; settings: human, SK-OV-3 cells
# Protocol: as §1, §2
# [9] = test system: Panc-1 cells; test: Boyden chamber migration assay, Panc-1; type: cell-based; settings: FIG. 7
# [10] = target: MraY (Escherichia coli (strain K12), UniProt P0A6W3); test: MraY assay; type: biochemical; settings: relative to FR-900493 (1)
# [11] = Cytotoxicity MTT assay, HCT 116; type: cell-based; settings: human, HCT 116 cells
# Protocol: as §1, §2
# [12] = Cytotoxicity MTT assay, Panc-1; type: cell-based; settings: human, Panc-1 cells
# Protocol: as §1, §2
# [13] = Water solubility; type: physicochemical; settings: 11 relative to 10
# [14] = test system: AsPc-1 cells; test: Scratch (wound healing) assay, AsPc-1; type: cell-based; settings: FIG. 9
# [15] = test system: AsPc-1 (pancreatic cancer) cells; test: Synergistic assay (checkerboard) on AsPc-1 cells; type: cell-based
# Protocol: Synergistic Assay. The synergistic or antagonistic activities of 11 with other cancer drugs on AsPc-1 (pancreatic cancer) cells were assessed in vitro via micro dilution broth checkerboard technique previously reported. The FIC index was calculated according to the following equation. ΣFIC=FICA+FICB=CA/MICA+CB/MICB where MICA and MICB are MIC of drugs A and B, CA and CB are the concentrations of drugs A and B used in combination. In these interaction studies, ΣFIC of less than 0.5 represents synergistic activity.
# These experiments were performed in the same manner as those of Example 8.
# [16] = test system: C. difficile; test: Antibacterial activity (FIG. 4), C. difficile; type: cell-based
# [17] = test system: MDA-MB-231 cells; test: Animal model of triple negative breast cancer (MDA-MB-231 implanted); type: in vivo; settings: mice, MDA-MB-231, 10 mg/kg/day, FIG. 10
# Protocol: An animal model of triple negative breast cancer was generated by implantation of MDA-MB-231 cells into mice. […] A second group of mice were treated with paclitaxel at 15 mg/kg.
# [18] = Cytotoxicity MTT assay, HPAF-II; type: cell-based; settings: human, HPAF-II cells
# Protocol: as §1, §2
# [19] = Cytotoxicity MTT assay, L12210; type: cell-based; settings: mouse, L12210 cells
# Protocol: as §1, §2
# [20] = target: WecA (Escherichia coli (strain K12), UniProt P0AC78); test: WecA assay (Table 1); settings: relative to FR-900493 (1)
# [21] = test system: Vero cells; test: Cytotoxicity MTT assay, Vero cells; type: cell-based, monkey
# [22] = Cytotoxicity MTT assay, MDA-MB-435S; type: cell-based; settings: human, MDA-MB-435S cells
# Protocol: as §1, §2
# [23] = Cytotoxicity MTT assay, KB; type: cell-based; settings: human, KB cells
# Protocol: as §1, §2
# Chain of MraY (P0A6W3 whole entry, looked up, species assumed): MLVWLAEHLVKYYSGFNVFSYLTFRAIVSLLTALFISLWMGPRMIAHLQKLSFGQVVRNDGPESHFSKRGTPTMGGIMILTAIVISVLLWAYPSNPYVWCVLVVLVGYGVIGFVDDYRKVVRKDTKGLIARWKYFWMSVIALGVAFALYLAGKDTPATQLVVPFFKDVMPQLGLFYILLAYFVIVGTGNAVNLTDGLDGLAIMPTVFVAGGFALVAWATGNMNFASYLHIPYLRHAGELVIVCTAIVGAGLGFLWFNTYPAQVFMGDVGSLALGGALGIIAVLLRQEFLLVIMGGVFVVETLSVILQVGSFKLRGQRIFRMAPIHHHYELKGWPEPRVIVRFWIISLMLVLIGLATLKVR
# Chain of WecA (P0AC78 whole entry, looked up, species assumed): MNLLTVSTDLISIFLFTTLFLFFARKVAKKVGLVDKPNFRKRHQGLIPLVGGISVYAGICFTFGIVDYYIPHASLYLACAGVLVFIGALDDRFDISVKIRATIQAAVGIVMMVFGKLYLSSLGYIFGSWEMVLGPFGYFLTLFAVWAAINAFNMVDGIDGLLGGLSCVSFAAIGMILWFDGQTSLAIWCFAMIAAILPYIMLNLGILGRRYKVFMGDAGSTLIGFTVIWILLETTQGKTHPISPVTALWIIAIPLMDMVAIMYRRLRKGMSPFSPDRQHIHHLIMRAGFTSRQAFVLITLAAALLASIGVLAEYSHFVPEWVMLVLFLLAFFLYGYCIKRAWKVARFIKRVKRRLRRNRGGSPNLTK
compound,measurement,setting,value
CCCCCCCc1ccc(NC(=O)CCCN(C)[C@H](C(N)=O)[C@H](OC2O[C@H](CN)[C@@H](O)[C@H]2O)[C@H]2O[C@@H](n3ccc(=O)[nH]c3=O)C(O)[C@H]2O)cc1 (stereo partly drawn) [Compound 9],anti-C. difficile growth inhibitory activity (in words),[1],weak
same,Viability of C. difficile spores,[2],caused loss of viability
CCCCCCCc1ccc(NC(=O)CCCN[C@H](C(N)=O)[C@H](OC2O[C@H](CN)[C@@H](O)[C@H]2O)[C@H]2O[C@@H](n3ccc(=O)[nH]c3=O)C(O)[C@H]2O)cc1 (stereo partly drawn) [Compound 10],IC50,[3],70000 nM
same,Viability of C. difficile spores,[2],caused loss of viability
NC[C@H]1O[C@@H](O[C@H]([C@H]2O[C@@H](n3ccc(=O)[nH]c3=O)[C@H](O)[C@@H]2O)[C@H](NCCCC(=O)NCc2ccc(N3CCC(Oc4ccc(C(F)(F)F)cc4)CC3)cc2)C(N)=O)[C@H](O)[C@@H]1O [Compound 11],IC50,[4],220 nM
same,expression of DPAGT1 (RPKM Expression Value),[5],sharply reduced
same,expression of EGFR (HER1),[5],sharply reduced
same,expression of Erb2 (HER2),[5],elevated
same,expression of Erb3 (HER3),[5],elevated
same,expression of Erb4 (HER4),[5],elevated
same,effect compared with transtuzumab,"[6]; BCI-12, FIG. 11",at least equivalent to transtuzumab
same,effect of combination of compound 11 and transtuzumab,"[6]; BCI-12, about days 20 to 30 of treatment",Improved effects
same,IC50,[7],950 nM
same,IC50,[8],2850 nM
same,Panc-1 migratory cells,[9],"fewer Panc-1 migratory cells than Gemcitabine, Taxol, and Tunicamycin"
same,"MraY inhibitory activity, more significant than 1",[10],> 300 times
same,IC50,[11],3540 nM
same,IC50,[12],< 98 nM
same,water solubility greater than 10,[13],200 times
same,"AsPc-1 cell migration, scratch assay",[14],less AsPc-1 cell migration than Gemcitabine
same,effect of combinations of 11 and Taxol,"[15]; AsPc-1, all five combinations, FIC < 0.5",synergistic effect
same,effect of combination of 11 and Gemcitabine,"[15]; AsPc-1, both combinations",synergistic effect
same,IC50 A / IC50 B (drug alone),"[15]; AsPc-1 cells, Table 5",982 nM
same,IC50 A / IC50 B (drug alone),"[15]; AsPc-1 cells, Table 6",980 nM
same,AsPc-1 cells dead/alive,[15]; Compound 11 0.0488281 μM + Gemcitabine 0.024414 μM,alive
same,AsPc-1 cells dead/alive,[15]; Compound 11 0.0488281 μM + Gemcitabine 0.048828 μM,alive
same,AsPc-1 cells dead/alive,[15]; Compound 11 0.0488281 μM + Gemcitabine 0.097656 μM,dead
same,AsPc-1 cells dead/alive,[15]; Compound 11 0.0488281 μM + Gemcitabine 0.195313 μM,dead
same,AsPc-1 cells dead/alive,[15]; Compound 11 0.0488281 μM + Gemcitabine 0.390625 μM,dead
same,AsPc-1 cells dead/alive,[15]; Compound 11 0.0976563 μM + Gemcitabine 0.024414 μM,alive
same,AsPc-1 cells dead/alive,[15]; Compound 11 0.0976563 μM + Gemcitabine 0.048828 μM,alive
same,AsPc-1 cells dead/alive,[15]; Compound 11 0.0976563 μM + Gemcitabine 0.097656 μM,dead
same,AsPc-1 cells dead/alive,[15]; Compound 11 0.0976563 μM + Gemcitabine 0.195313 μM,dead
same,AsPc-1 cells dead/alive,[15]; Compound 11 0.0976563 μM + Gemcitabine 0.390625 μM,dead
same,AsPc-1 cells dead/alive,[15]; Compound 11 0.1953125 μM + Gemcitabine 0.024414 μM,alive
same,AsPc-1 cells dead/alive,[15]; Compound 11 0.1953125 μM + Gemcitabine 0.048828 μM,alive
same,AsPc-1 cells dead/alive,[15]; Compound 11 0.1953125 μM + Gemcitabine 0.097656 μM,dead
same,AsPc-1 cells dead/alive,[15]; Compound 11 0.1953125 μM + Gemcitabine 0.195313 μM,dead
same,AsPc-1 cells dead/alive,[15]; Compound 11 0.1953125 μM + Gemcitabine 0.390625 μM,dead
same,AsPc-1 cells dead/alive,[15]; Compound 11 0.390625 μM + Gemcitabine 0.024414 μM,alive
same,AsPc-1 cells dead/alive,[15]; Compound 11 0.390625 μM + Gemcitabine 0.048828 μM,alive
same,AsPc-1 cells dead/alive,[15]; Compound 11 0.390625 μM + Gemcitabine 0.097656 μM,dead
same,AsPc-1 cells dead/alive,[15]; Compound 11 0.390625 μM + Gemcitabine 0.195313 μM,dead
same,AsPc-1 cells dead/alive,[15]; Compound 11 0.390625 μM + Gemcitabine 0.390625 μM,dead
same,AsPc-1 cells dead/alive,[15]; Compound 11 0.78125 μM + Gemcitabine 0.024414 μM,alive
same,AsPc-1 cells dead/alive,[15]; Compound 11 0.78125 μM + Gemcitabine 0.048828 μM,alive
same,AsPc-1 cells dead/alive,[15]; Compound 11 0.78125 μM + Gemcitabine 0.097656 μM,dead
same,AsPc-1 cells dead/alive,[15]; Compound 11 0.78125 μM + Gemcitabine 0.195313 μM,dead
same,AsPc-1 cells dead/alive,[15]; Compound 11 0.78125 μM + Gemcitabine 0.390625 μM,dead
same,antibacterial activity against C. difficile,[16],displayed antibacterial activity
same,IC50,[3],206000 nM
same,effect compared with paclitaxel (15 mg/kg),[17],at least equivalent to palctitaxel
same,IC50,[18],< 98 nM
same,Viability of C. difficile spores,[2],caused loss of viability
same,IC50,[19],> 100000 nM
same,"WecA inhibitory activity, more significant than 1",[20],about 15 fold
same,"cytotoxic effects on healthy, non-cancerous Vero cells",[21],little cytotoxic effects
same,IC50,[22],7090 nM
same,IC50,[23],7090 nM
CN(CCCC(=O)NCc1ccc(N2CCC(Oc3ccc(C(F)(F)F)cc3)CC2)cc1)[C@H](C(N)=O)[C@H](O[C@@H]1O[C@H](CN)[C@@H](O)[C@H]1O)[C@H]1O[C@@H](n2ccc(=O)[nH]c2=O)[C@H](O)C1O (stereo partly drawn) [Compound 12],anti-C. difficile growth inhibitory activity (in words),[1],weak
"CN(CCCN)[C@H](C(=O)O)[C@H](O[C@@H]1O[C@H](CN)[C@@H](O)[C@H]1O)[C@H]1O[C@@H](n2ccc(=O)[nH]c2=O)[C@H](O)[C@@H]1O [FR-900493 (1), FR-900493]",C. difficile ATCC43596 MIC,[1],>50 µg/mL
"Nc1ccn([C@@H]2O[C@H](CO)[C@@H](O)C2(F)F)c(=O)n1 [Gemcitabine, reference compound]",IC50 A / IC50 B (drug alone),"[15]; AsPc-1 cells, Table 6",390 nM
same,CA and CB (concentrations of drugs A and B used in combination),"[15]; AsPc-1 cells, combination of 11 (A) and Gemcitabine (B), per entry",0.37 µM
"CC(=O)O[C@H]1C(=O)[C@@]2(C)[C@H]([C@H](OC(=O)c3ccccc3)[C@]3(O)C[C@H](OC(=O)[C@H](O)[C@@H](NC(=O)c4ccccc4)c4ccccc4)C(C)=C1C3(C)C)[C@]1(OC(C)=O)CO[C@@H]1C[C@@H]2O [Taxol, Paclitaxel, reference compound]",IC50,[4],57 nM
same,IC50,[7],190 nM
same,IC50,[8],1080 nM
same,IC50,[12],20 nM
same,IC50 A / IC50 B (drug alone),"[15]; AsPc-1 cells, Table 5",550 nM
same,lowest Taxol concentration to kill AsPc-1 cells when combined with 11,[15]; combined with 11,7 nM
same,IC50,[18],20 nM
same,IC50,[19],550 nM
same,IC50,[22],110 nM
same,IC50,[23],790 nM
"CC(=O)NC[C@H]1CN(c2ccc(N3CCOCC3)c(F)c2)C(=O)O1 [linezolid, reference compound]",Inhibition of C. difficile spore germination,[2],did not inhibit the spore germination
"Cc1ncc([N+](=O)[O-])n1CCO [metronidazole, reference compound]",Inhibition of C. difficile spore germination,[2],did not inhibit the spore germination
"CN[C@H](CC(C)C)C(=O)N[C@H]1C(=O)N[C@@H](CC(N)=O)C(=O)N[C@H]2C(=O)N[C@H]3C(=O)N[C@H](C(=O)N[C@H](C(=O)O)c4cc(O)cc(O)c4-c4cc3ccc4O)[C@H](O)c3ccc(c(Cl)c3)Oc3cc2cc(c3O[C@@H]2O[C@H](CO)[C@@H](O)[C@H](O)[C@H]2O[C@H]2C[C@](C)(N)[C@H](O)[C@H](C)O2)Oc2ccc(cc2Cl)[C@H]1O [vancomycin, reference compound]",MIC against C. difficile (reference antibiotic),[1],2.5 µg/mL
same,Inhibition of C. difficile spore germination,[2],did not inhibit the spore germination
Tunicamycin,C. difficile ATCC43596 MIC,[1],>50 µg/mL
